Experimental findings from ChEMBL document CHEMBL5096229, “A 1,2,3-Triazole Derivative of Quinazoline Exhibits Antitumor Activity by Tethering RNF168 to SQSTM1/P62” (J Med Chem, 2022) are described below.

The source made the active and inactive calls. No cut-off for these calls is given here.

The target of data set [1] is E3 ubiquitin-protein ligase RNF168 (Homo sapiens, UniProt Q8IYW5). The experiment in a line: Inhibition of RNF168 activity in human HCT-116 cells assessed as reduction in gamma-H2AX ubiquitination by immunoblotting assay. The class given is cell-based.
Data set [2] is described as follows: Cmax in BALB/c mouse at 10 mg/kg. It is filed as ADME, organism-based. The arrangement: dose 10 mg/kg. Particulars: in vivo.
Data set [3] relates to HCT-116. The experiment in a line: Induction of cell cycle arrest in human HCT-116 cells assessed as accumulation at S phase at 5 uM after 24 hrs by propidium iodide-staining based flow cytometry (reference value: 17.17 +/- 0.18%). It is filed as functional. On the technique in general: Flow cytometry measures light scatter and fluorescence of single cells or particles in a stream.

The nature of data set [4]: Toxicity in BALB/c nude mouse assessed as animal death 12.5 mg/kg, ip after 7 days. It is filed as organism-based. Particulars: in vivo, 168 h, time 7 day.
Data set [5] deals with HCT-116. Kind of data set: Induction of P62 to RNF168 protein-protein interaction in human HCT-116 cells lysates chromatin enriched fraction by immunoblotting assay. It is filed as subcellular.
The nature of data set [6]: Clearance in BALB/c mouse at 5 mg/kg. The class given is ADME, organism-based. Particulars: in vivo.
For data set [7], the system named is HCT-116. The experiment in a line: Induction of cell cycle arrest in human HCT-116 cells assessed as accumulation at G2/M phase at 5 uM after 24 hrs by propidium iodide-staining based flow cytometry (reference value: 23.25 +/- 1.38%). The class given is functional.
The subject of the next data set is MCF7. Kind of data set: Cytotoxicity against human MCF7 cells assessed as reduction in cell viability incubated for 72 hrs by MTS assay. It is filed as functional, cell-based. Particulars: MCF7, 72 h.
The target in another data set is Sequestosome-1 (Homo sapiens, UniProt Q13501). The experiment in a line: Binding affinity to N-terminal P62 (1 to 335 residues) in human HCT-116 cells lysates. It is filed as subcellular. The following applies: filed as activator.
Sequence of Sequestosome-1 (Q13501 whole entry, the tested form may be a part): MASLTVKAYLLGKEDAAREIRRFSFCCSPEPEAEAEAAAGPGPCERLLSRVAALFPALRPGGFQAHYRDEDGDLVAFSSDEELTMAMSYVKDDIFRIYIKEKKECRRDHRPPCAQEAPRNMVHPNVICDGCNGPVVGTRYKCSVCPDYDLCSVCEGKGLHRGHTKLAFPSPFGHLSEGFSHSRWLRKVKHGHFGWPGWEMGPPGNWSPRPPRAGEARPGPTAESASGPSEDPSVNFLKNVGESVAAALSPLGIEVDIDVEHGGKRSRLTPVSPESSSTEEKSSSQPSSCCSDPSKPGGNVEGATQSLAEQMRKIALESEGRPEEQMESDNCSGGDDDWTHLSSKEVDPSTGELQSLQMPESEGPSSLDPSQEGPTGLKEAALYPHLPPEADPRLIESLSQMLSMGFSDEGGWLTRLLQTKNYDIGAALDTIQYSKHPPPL

Sequence of E3 ubiquitin-protein ligase RNF168 (Q8IYW5 whole entry): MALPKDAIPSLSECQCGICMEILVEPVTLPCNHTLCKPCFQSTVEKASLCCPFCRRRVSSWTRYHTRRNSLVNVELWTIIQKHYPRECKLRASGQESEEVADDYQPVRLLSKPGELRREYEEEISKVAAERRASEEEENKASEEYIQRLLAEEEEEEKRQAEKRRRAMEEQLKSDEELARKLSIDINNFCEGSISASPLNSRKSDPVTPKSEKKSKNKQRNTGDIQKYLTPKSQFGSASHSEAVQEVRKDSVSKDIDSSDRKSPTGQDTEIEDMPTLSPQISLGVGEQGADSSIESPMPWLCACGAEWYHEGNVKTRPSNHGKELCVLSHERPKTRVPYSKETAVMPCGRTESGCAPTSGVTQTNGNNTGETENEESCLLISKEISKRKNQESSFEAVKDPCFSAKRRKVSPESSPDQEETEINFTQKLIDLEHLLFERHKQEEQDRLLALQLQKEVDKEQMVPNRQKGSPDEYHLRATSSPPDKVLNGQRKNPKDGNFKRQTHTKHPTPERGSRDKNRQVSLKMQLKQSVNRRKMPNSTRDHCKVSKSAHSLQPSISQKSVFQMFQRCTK

In the case of `COc1cc(-n2cc(-c3ccc4nc(N)nc(N)c4c3)nn2)cc(OC)c1OC`, in [1], the inhibition result was “Active”. In data set [2], this compound had a Cmax of 39.9 ng/mL. In addition, the values for the Activity (in the data set with HCT-116 [3]; in [4]; in the data set on HCT-116 [7]) were 18.77%, “Toxic” and 35.34%, respectively. Also, the result with HCT-116 [5] and at Sequestosome-1 was Active. Further, the clearance in [6] is 327 mL/min/kg. Also, in the data set on MCF7, the IC50 was 2790 nM.

For orientation: Cmax means the peak of the concentration-time curve. As usually defined, the clearance is the volume of plasma or blood freed of the substance per unit of time. Read a high clearance as a high capacity for elimination. Usually IC50 stands for the concentration that inhibits the measured activity by half.
